The test system of data set [1] is GPA33-expressing human colorectal cancer SW1222 subcutaneous xenograft. Briefly: PET/CT imaging of pretargeted [^18F]CyD. In kind it is in vivo, Athymic nude mice. The note with it: approximately 1 h after i.v. injection (1.295 MBq, 0.23 nmol), pretargeted tumor-bearing mice. How it is done: (§1) In vivo pretargeting of [^18F]CyD for PET imaging of human colorectal cancer xenograft (SW1222 human carcinoma cell line). Athymic nude mice bearing the GPA33-expressing human colorectal cancer SW1222 subcutaneous xenograft were used as a model for anti-GPA33 DOTA-PRIT. The groups were intravenously (i.v.) injected with BsAb huA33-C825 (250 μg, 1.19 nmol), followed 24 h later with i.v. injection of dendron CA ([…], 2.76 nmol; (glycodendrimer-based CA α-thio-N-acetylgalactosamine-16-DOTA-Y^3; see WO2020014386)) and after an additional 4 h, i.v. injection of [^18F]CyD (1.295 MBq (35 μCi), 0.23 nmol). Non-invasive PET/CT imaging was performed using a preclinical Inveon PET/CT system at ˜1 h post-injection (p.i.) of [^18F]CyD (see FIG. 23), followed with ex vivo biodistribution assay of radioactivity.

Data set [2] shares this test system. Briefly: Ex vivo biodistribution of anti-GPA33 pretargeted [^18F]CyD. The class given is in vivo, Athymic nude mice. Conditions: 2 h p.i. How it is done:
as §1

Data set [3] relates to subcutaneous GD2-expressing tumor (IMR32Luc). Briefly: ^18F-PET imaging of GD2-positive subcutaneous tumor. The class given is in vivo. Conditions: IMR32Luc tumor mouse, anti-GD2/anti-DOTA BsAb 24 h and clearing agent 4 h before PET; image after 2 hours. How it is done:
A pilot PET study using ([^175Lu][^18F]-Compound 6) was carried out. For that purpose, a mouse bearing a subcutaneous GD2-expressing tumor (IMR32Luc) was pretreated (24 hours pre PET) with an anti-GD2/anti-DOTA BsAb and followed with DOTA-dendrimer clearing agent (glycodendrimer-based CA α-thio-N-acetylgalactosamine-16-DOTA-Y^3; see WO2020014386) (4 hours before PET) and [^175Lu][^18F]-Compound 6. After 2 hours the image was collected by a PET scan. […] Moreover, the small size of [^175Lu][^18F]-Compound 6 reduced background activity dramatically in a short amount of time.

For `CC1(C)C(=C/C=C/C2=[N+](CCCCCC(=O)NCC[N+](C)(C)C[B-](F)(F)[18F])c3ccc(S(=O)(=O)[O-])cc3C2(C)C)N(CCCCCC(=O)Nc2ccc(CC3CN(CC(=O)[O-])CCN(CC(=O)[O-])CCN(CC(=O)[O-])CCN3CC(=O)[O-])cc2)c2ccc(S(=O)(=O)[O-])cc21.[175Lu+3]` (stereo not drawn) [[^18F]CyD], the “Activity in the tumor by PET/CT” value in data set [1] was “high activity is present in the tumor”. In data set [2] (SW1222-tumor bearing mice), this compound returned a Bone uptake of 1.65±0.48 % ID/g and a Large intestine uptake of 8.41±2.62 % ID/g. In data set [2] (n=3, SW1222-tumor bearing mice), this compound displayed a Blood uptake of 0.17±0.12 % ID/g, a Kidney uptake of 0.87±0.11 % ID/g and a Tumor Uptake of 5.14±1.24 % ID/g. Further, the “T:NT for blood” value in data set [2] (tumor to blood) stood at 31±13. For the same compound, the “T:NT for kidney” value in data set [2] (tumor to kidney) was determined as 6±1.

Regarding `CC1(C)C(=CC=CC2=[N+](CCCCCC(=O)NCC[N+](C)(C)C[B-](F)(F)[18F])c3ccc(S(=O)(=O)[O-])cc3C2(C)C)N(CCCCCC(=O)Nc2ccc(CC3CN(CC(=O)[O-])CCN(CC(=O)[O-])CCN(CC(=O)[O-])CCN3CC(=O)[O-])cc2)c2ccc(S(=O)(=O)[O-])cc21.[175Lu+3]` (stereo not drawn) [[^175Lu][^18F]-Compound 6, [^18F]Cy3D[^175Lu]], the “Tumor targeting by PET scan” value in data set [3] is given as “specifically targeted to the BsAb-treated tumor”.
